# Legend:
# [1] = Multi-dose rat pharmacokinetic and tolerability study; assay type: in vivo, Sprague Dawley rats; settings: for AUC / CL/F / fold increase in mean AUCall compared to Study Day 1 / AUC(0-t) / Cmax / Tmax: male, Sprague Dawley; for fold increase in mean AUCall compared to Study Day 1: 7 days
# Procedure: The purpose of this study was to determine the pharmacokinetic (PK) properties and tolerability of MGBG in rats. Additionally, recovery from any toxic effects was assessed after a seven day non-dosing period.
# Three per group of male Sprague Dawley (CD® MS, Charles River) aged 7-9 weeks and weighing 222.7-252.0 g were administered by oral (PO) gavage, twice daily, at 10, 20, or 30 mg/kg/dose (20, 40, or 60 mg/kg/day) for seven consecutive days. A washout period of seven days followed. Collection of approximately 200 μL of whole blood was collected from the tail vein of all animals in Groups 5, 6, and 7 were bled at six (Day 1), seven (Day 7), or one (Days 9 through 15) time point(s), respectively. Whole blood samples were collected in a lithium heparin microtainer and processed to plasma by centrifugation. Plasma was frozen at −70° C. Pharmacokinetic analyses were performed on the individual animal plasma concentration versus time data for MGBG using WinNonlin (linear trapezoidal rule for AUC calculations). Nominal dose values and sampling times were used for calculations. For Study Day 7, the reported values for MGBG concentrations at time zero were used in the calculations of AUC. Study Day 1 disposition parameters were not reported due to insufficient terminal phase data to adequately characterize these parameters.
# On Study Day 7, evidence of dose-dependent dispositions for Cl/Fobs and elimination half-life were observed as mean parameter values for Cl/Fobs and elimination half-life increased and decreased, respectively, with increasing dose levels.
# Based on the findings of this exploratory study, the no observable adverse effect level (NOAEL) for MGBG administered by PO gavage twice daily for seven consecutive days to male Sprague Dawley rats is 30 mg/kg/dose (60 mg/kg/day).
# [2] = Mouse single-dose pharmacokinetics; assay type: in vivo, DBA/1 mice; settings: for AUC / Cmax: plasma
# Procedure: Twenty-four male DBA/1 mice weighing 19.5-24.7 g and aged 7-9 weeks administered the test article, MGBG, as either a single bolus intravenous dose via a lateral tail vein of 1 mg/kg (Group 1, n=12) or as a single oral gavage dose of 10 mg/kg (Group 2, n=12). Each dose group consisted of 4 cohorts of 3 animals each. Group 1 was sampled at 5, 15, and 30 minutes after dosing; and 1, 2, 4, 8, and 24 hours after dosing. Group 2 was sampled at 1, 2, 4, 8, 12, 24, and 36 hours after dosing. Starting with the first time point, a new cohort was sampled at each successive time point up to the 1-hour (Group 1) or 12-hour (Group 2) time point. The order of sampling among the cohorts was repeated for the subsequent time points (some cohorts may have been bled only once). The second bleed for each cohort was terminal. Animals were sacrificed via CO2 inhalation anaesthesia after final blood collection.
# The samples were centrifuged under refrigerated conditions following completion of sample collection at each interval. The resulting plasma was separated and stored frozen at approximately −70° C. until analysis. Analysis was performed by LC/MS/MS. Pharmacokinetic analyses were performed on the mean MGBG plasma concentration versus time data using the non-compartmental approach (linear trapezoidal rule for AUC calculations). The WinNonlin sparse sampling tool was used for PK calculations.
# [3] = Rhesus macaque single-dose pharmacokinetics; assay type: in vivo, rhesus monkeys
# Procedure: Two groups of three male rhesus monkeys were fasted overnight before being administered the test article, MGBG, as either a single bolus intravenous dose of 1 mg/kg (Group 1) or as a single oral gavage dose of 10 mg/kg (Group 2). Dose formulation analysis verified administered dose solutions as within 14% of targeted concentrations of 1 and 10 mg/kg for Groups 1 and 2, respectively.
# Blood samples were collected into tubes containing lithium heparin from the femoral vein/artery (approximately 1.0 mL) for plasma MGBG concentration measurement from all intravenously dosed animals prior to dosing and at approximately T=0.083 (5 min), 0.25 (15 min), 0.5 (30 min), 1, 2, 4, 8, and 24 hours after dosing. Blood samples for plasma MGBG concentration measurement were collected from all orally dosed animals prior to dosing at approximately T=1, 2, 4, 8, 12, 24, and 36 hours after dosing. Food was also withheld through the first four hours of blood sample collection.
# The samples were centrifuged under refrigerated conditions following completion of sample collection at each interval. The resulting plasma was separated and stored frozen at approximately −70° C. until analysis.
# PK analysis was performed on the individual plasma concentration-time profiles for MGBG using the WinNonlin non-compartmental approach (linear trapezoidal rule for AUC calculations). Nominal dose values and sampling times were used for calculations. All MGBG plasma concentration measurements reported as BQL (<2.51 ng/mL) were set equal to zero for the purpose of analysis. Following IV and PO administration of MGBG, plasma PK disposition parameters were calculated using the WinNonlin default selection criteria for the selection of the Lambda Z.
# Consequently, a model-dependent two-compartmental analysis was used to calculate bioavailability.
# [4] = following IV and PO administration
# [5] = male, DBA/1, plasma, single bolus IV 1 mg/kg, mean
# [6] = male, DBA/1, plasma, single oral gavage 10 mg/kg, mean
# [7] = male, DBA/1, single bolus IV 1 mg/kg, mean
# [8] = male, DBA/1, single oral gavage 10 mg/kg, mean
# [9] = single oral gavage 10 mg/kg, mean
# [10] = male, rhesus monkey, plasma, single bolus IV 1 mg/kg, mean
# [11] = male, rhesus monkey, plasma, single oral gavage 10 mg/kg, mean
# [12] = male, rhesus monkey, single bolus IV 1 mg/kg, plasma, mean
# [13] = male, rhesus monkey, single oral gavage 10 mg/kg, plasma, mean
smiles,measurement,setting,value
"CC(/C=N/NC(=N)N)=N\NC(=N)N [MGBG, 1,1′[methylethanediylidene]dinitrilodiguanidine]",increase of systemic exposure (Cmax and AUCall) with increasing dose,[1]; in vivo,slightly less than dose-proportional
same,hematology parameters versus control group,"[1]; in vivo, 60 mg/kg/day",lower reticulocyte count and percentage
same,serum chemistry parameters versus control group,"[1]; in vivo, 60 mg/kg/day",osmolality and electrolyte changes consistent with slight dehydration
same,NOAEL at 7 days,"[1]; in vivo, male Sprague Dawley rats, PO gavage twice daily, seven consecutive days, read-out: no observable adverse effect level (NOAEL)",60 mg/kg/day
same,"systemic exposure, plasma Day 1 and Day 7","[1]; in vivo, po",systemic exposure to the test article at all time points
same,AUC,"[1]; in vivo, po, 20 mg/kg/day",7930 ng·h/mL
same,CL/F,"[1]; in vivo, po, 20 mg/kg/day",24.3 mL/min/kg
same,fold increase in mean AUCall compared to Study Day 1,"[1]; in vivo, po, 20 mg/kg/day",3.77 fold
same,AUC(0-t),"[1]; in vivo, po, 20 mg/kg/day, AUC0-12",773 ng·h/mL
same,AUC(0-t),"[1]; in vivo, po, 20 mg/kg/day, AUC0-24",1750 ng·h/mL
same,Cmax,"[1]; in vivo, po, 20 mg/kg/day",124 ng/mL
same,Tmax,"[1]; in vivo, po, 20 mg/kg/day, Tmax",10 h
same,AUC,"[1]; in vivo, po, 40 mg/kg/day",13700 ng·h/mL
same,CL/F,"[1]; in vivo, po, 40 mg/kg/day",28.2 mL/min/kg
same,fold increase in mean AUCall compared to Study Day 1,"[1]; in vivo, po, 40 mg/kg/day",4.03 fold
same,AUC(0-t),"[1]; in vivo, po, 40 mg/kg/day, AUC0-12",1380 ng·h/mL
same,AUC(0-t),"[1]; in vivo, po, 40 mg/kg/day, AUC0-24",2980 ng·h/mL
same,Cmax,"[1]; in vivo, po, 40 mg/kg/day",175 ng/mL
same,Tmax,"[1]; in vivo, po, 40 mg/kg/day, Tmax",7.33 h
same,AUC,"[1]; in vivo, po, 60 mg/kg/day",17100 ng·h/mL
same,CL/F,"[1]; in vivo, po, 60 mg/kg/day",35.8 mL/min/kg
same,fold increase in mean AUCall compared to Study Day 1,"[1]; in vivo, po, 60 mg/kg/day",3.68 fold
same,AUC(0-t),"[1]; in vivo, po, 60 mg/kg/day, AUC0-12",2170 ng·h/mL
same,AUC(0-t),"[1]; in vivo, po, 60 mg/kg/day, AUC0-24",4380 ng·h/mL
same,Cmax,"[1]; in vivo, po, 60 mg/kg/day",296 ng/mL
same,Tmax,"[1]; in vivo, po, Tmax values over the dose range evaluated",3.33 to 14 h
same,gross or microscopic lesions at terminal sacrifice,[1]; test article-treated animals,No gross or microscopic lesions were observed
same,systemic plasma MGBG exposure,[2]; [4],observed at all collected plasma time points
same,clinical findings,[2]; following dosing,Abnormal clinical findings were not noted
same,bioavailability,"[2]; male, DBA/1, plasma, oral 10 mg/kg vs IV 1 mg/kg",44.3%
same,Tmax,[2]; [5],0.083 h
same,half-life,[2]; [5],13 h
same,Tmax,[2]; [6],1 h
same,half-life,[2]; [6],11.8 h
same,AUC,[2]; [7],336 ng·h/mL
same,Cmax,[2]; [7],181 ng/mL
same,AUC,[2]; [8],1420 ng·h/mL
same,Cmax,[2]; [8],106 ng/mL
same,Clobs,"[2]; single bolus IV 1 mg/kg, mean",49.6 mL/min/kg
same,VSSobs,"[2]; single bolus IV 1 mg/kg, mean",38.3 L/kg
same,Clobs,[2]; [9],6.68 mL/min/kg
same,systemic plasma MGBG exposure,[3]; [4],observed at all collected plasma time points
same,bioavailability,"[3]; male, rhesus monkey, plasma, oral 10 mg/kg vs IV 1 mg/kg, two-compartmental analysis used",35%
same,Tmax,[3]; [10],0.139 h
same,half-life,[3]; [10],30.8 h
same,Tmax,[3]; [11],3.33 h
same,half-life,[3]; [11],24.2 h
same,AUC,[3]; [12],1660 ng·h/mL
same,Cmax,[3]; [12],757 ng/mL
same,AUC,[3]; [13],4240 ng·h/mL
same,Cmax,[3]; [13],192 ng/mL
same,Clobs,"[3]; single bolus IV 1 mg/kg, mean",13.7 mL/min/kg
same,VSSobs,"[3]; single bolus IV 1 mg/kg, mean",13.2 L/kg
same,Clobs,[3]; [9],6.63 mL/min/kg
